Results reported in patent US9233965B2, “3,4-dihydropyrrolo[1,2-A]pyrazine-2,8(1H)-dicarboxamide derivatives, preparation thereof and therapeutic use thereof for diseases involving casein kinase 1 epsilon and/or casein kinase 1 delta” (SANOFI, priority 2010, dated 2016).

What was measured:
[1] = biological target: casein kinase 1 epsilon (CK1 epsilon) (Homo sapiens (Human), UniProt P49674); experiment: Test A: inhibitory activity on CK1 epsilon, casein phosphorylation assay on ATP-33P filter plate; type: biochemical; details: IC50 values or IC50 ranges (result of several experiments), ATP 10 μM final
Sequence of casein kinase 1 epsilon (CK1 epsilon) (P49674 whole entry): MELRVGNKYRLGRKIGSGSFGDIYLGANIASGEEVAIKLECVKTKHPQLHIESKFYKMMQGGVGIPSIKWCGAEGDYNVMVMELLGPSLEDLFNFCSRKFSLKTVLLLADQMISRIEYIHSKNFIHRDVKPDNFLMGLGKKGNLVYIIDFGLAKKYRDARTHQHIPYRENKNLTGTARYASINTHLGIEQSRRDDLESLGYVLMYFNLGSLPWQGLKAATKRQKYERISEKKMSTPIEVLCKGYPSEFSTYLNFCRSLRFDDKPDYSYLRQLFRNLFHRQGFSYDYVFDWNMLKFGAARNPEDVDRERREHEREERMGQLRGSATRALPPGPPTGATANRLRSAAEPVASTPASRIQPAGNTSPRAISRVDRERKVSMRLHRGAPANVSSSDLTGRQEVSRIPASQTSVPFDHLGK
Method: The capacity of the compounds of the invention to inhibit the phosphorylation of casein by casein kinase 1 epsilon and/or delta may be evaluated according to the procedures described in document US 2005/0 131 012.
Test A: Inhibitory Activity on CK1 Epsilon Measured by Assay on an ATP-^33P Filter Plate
The effect of the compounds on inhibition of the phosphorylation of casein by the enzyme casein kinase 1 epsilon (CK1 epsilon) is measured, using a casein assay via filtration of ATP-^33P in vitro.
Casein kinase 1 epsilon (0.58 mg/ml) is obtained via fermentation and purification processes performed according to methods that are well known to those skilled in the art, or may also be obtained from Invitrogen Corporation™ (human CK1 epsilon).
The compounds are tested at five different concentrations so as to generate IC50 values, i.e. the concentration at which a compound is capable of inhibiting the enzymatic activity by 50%, or alternatively the percentage of inhibition at a concentration of 10 micromolar.
“U”-bottomed Falcon plates are prepared by placing 5 μL of solutions of the compounds according to the invention at concentrations of 10, 1, 0.1, 0.01 or 0.001 μM in different wells. The solutions of the compounds according to the invention at these various concentrations are prepared by diluting in a test buffer (Tris 50 mM pH 7.5, MgCl2 […], DTT 2 mM and EGTA 1 mM) a stock solution in DMSO at a concentration of 10 mM. Next, 5 μL of dephosphorylated casein are added to a final concentration of 0.2 μg/μL, 20 μL of CK1 epsilon to a final concentration of 3 ng/μL, and 20 μL of ATP-^33P to a final concentration of 0.02 μCi/μL mixed with cold ATP (10 μM final—approximately 2×10^6 CPM per well). The final total test volume per well is equal to 50 μL.
The “U”-bottomed Falcon® test plate mentioned above is vortexed, and then incubated at room temperature for 2 hours. After 2 hours the reaction is stopped by adding an ice-cold solution of 65 μL of cold ATP (2 mM) prepared in test buffer.
100 μL of the reaction mixture are then transferred from the “U”-bottomed Falcon® plate into Millipore® MAPH filter plates, preimpregnated with 25 μL of ice-cold 100% TCA.
The Millipore MAPH filter plates are agitated gently and are left to stand at room temperature for at least 30 minutes to precipitate the proteins.
After 30 minutes, the filter plates are sequentially washed and filtered with 2×150 μL of 20% TCA, 2×150 μL of 10% TCA and 2×150 μL of 5% TCA (6 washes in total per plate/900 μL per well).
The plates are left to dry overnight at room temperature. Next, 40 μL of Microscint-20 Packard® scintillation liquid are added per well and the plates are closed in a leaktight manner. The radiation emitted by each well is then measured for 2 minutes in a TopCount NXT Packard® scintillation counter, in which the values of CPM/well are measured.
The percentage inhibition of the capacity of the enzyme to phosphorylate the substrate (casein) is determined for each concentration of test compound. These inhibition data expressed as percentages are used to calculate the IC50 value for each compound compared with the controls.
The kinetic studies determined the KM value for ATP as being 21 μM in this test system.
Table 2 below gives the IC50 values or the IC50 inhibition ranges (result of several experiments) for the phosphorylation of Casein Kinase 1 Epsilon for a number of compounds according to the invention.

| Compound | melting point | IC50 [1] |
| --- | --- | --- |
| COc1ccc(-c2cn3c(c2C(N)=O)CN(C(=O)NC(C)(C)C)CC3)cc1 [Compound 2, N^2-tert-butyl-7-(4-methoxyphenyl)-3,4-dihydropyrrolo[1,2-a]pyrazine-2,8(1H)-dicarboxamide] | 197 to 198 °C | < 0.001 µM |
| CC(C)(C)NC(=O)N1CCn2c(c(C(N)=O)c(-c3cccc(OCc4ccccc4)c3)c2C2CC2)C1 [Compound 34, 7-[3-(benzyloxy)phenyl]-N^2-tert-butyl-6-cyclo-propyl-3,4-dihydropyrrolo[1,2-a]pyrazine-2,8(1H)-dicarboxamide] | 156 to 158 °C | 0.315 µM |
| COc1ccc(-c2c(C(N)=O)c3n(c2C2CC2)CCN(C(=O)NC(C)(C)C)C3)cc1 [Compound 36, N^2-tert-butyl-6-cyclo-propyl-7-[4-(methoxy)phenyl]-3,4-dihydropyrrolo[1,2-a]pyrazine-2,8(1H)-dicarboxamide] | 177 to 179 °C | 0.046 to 0.075 µM |
| CC(C)(C)NC(=O)N1CCn2c(c(C(N)=O)c(-c3ccc(Oc4ccccc4)cc3)c2C2CC2)C1 [Compound 39, N^2-tert-butyl-6-cyclo-propyl-7-(4-phenoxyphenyl)-3,4-dihydropyrrolo[1,2-a]pyrazine-2,8(1H)-dicarboxamide] | 157 to 159 °C | 0.004 to 0.036 µM |
| CC(C)(C)NC(=O)N1CCn2c(c(C(N)=O)c(-c3ccc(OCc4ccccc4)cc3)c2C2CC2)C1 [Compound 40, 7-[4-(benzyloxy)phenyl]-N^2-tert-butyl-6-cyclo-propyl-3,4-dihydropyrrolo[1,2-a]pyrazine-2,8(1H)-dicarboxamide] | 203 to 206 °C | 0.038 µM |
| CC(C)(C)NC(=O)N1CCn2c(c(C(N)=O)c(-c3ccc(F)cc3)c2C2CC2)C1 [Compound 47, N^2-tert-butyl-6-cyclo-propyl-7-(4-fluorophenyl)-3,4-dihydropyrrolo[1,2-a]pyrazine-2,8(1H)-dicarboxamide] | 220 to 223 °C | 0.045 to 0.146 µM |
| NC(=O)c1c(-c2ccccc2)c(C2CC2)n2c1CN(C(=O)NC1CCCCC1)CC2 [Compound 49, N^2-cyclo-hexyl-6-cyclo-propyl-7-phenyl-3,4-dihydropyrrolo[1,2-a]pyrazine-2,8(1H)-dicarboxamide] |  | 0.017 to 0.028 µM |
| NC(=O)c1c(-c2ccccc2)c(C2CC2)n2c1CN(C(=O)NCC1CCCCC1)CC2 [Compound 50, N^2-(cyclo-hexylmethyl)-6-cyclo-propyl-7-phenyl-3,4-dihydropyrrolo[1,2-a]pyrazine-2,8(1H)-dicarboxamide] |  | 0.025 µM |
| COc1ccc(-c2c(C(N)=O)c3n(c2C2CC2)CCN(C(=O)NC2(C4CC4)CC2)C3)cc1 [Compound 51, N^2-[1,1′-bi(cyclo-propyl)-1-yl]-6-cyclo-propyl-7-(4-methoxyphenyl)-3,4-dihydropyrrolo[1,2-a]pyrazine-2,8(1H)-dicarboxamide] | 175 to 177 °C | 0.04 µM |
| CC(C)(C)CC(C)(C)NC(=O)N1CCn2c(c(C(N)=O)c(-c3ccccc3)c2C2CC2)C1 [Compound 52, 6-cyclo-propyl-7-phenyl-N^2-(2,4,4-trimethylpentan-2-yl)-3,4-dihydropyrrolo[1,2-a]pyrazine-2,8(1H)-dicarboxamide] |  | 0.045 µM |
| COc1ccc(-c2c(C(N)=O)c3n(c2C2CC2)CCN(C(=O)NC24CC5CC(CC2C5)C4)C3)cc1 [Compound 53, 6-cyclo-propyl-N^2-(hexahydro-2,5-methanopentalen-3a(1H)-yl)-7-(4-methoxyphenyl)-3,4-dihydropyrrolo[1,2-a]pyrazine-2,8(1H)-dicarboxamide] | 216 to 219 °C | 0.007 µM |
| CC(C)CNC(=O)N1CCn2c(Cl)c(-c3ccccc3)c(C(N)=O)c2C1 [Compound 59, 6-chloro-N^2-iso-butyl-7-phenyl-3,4-dihydropyrrolo[1,2-a]pyrazine-2,8(1H)-dicarboxamide] |  | 0.008 to 0.013 µM |
| COc1cccc(-c2c(C(N)=O)c3n(c2Cl)CCN(C(=O)NC(C)(C)C)C3)c1 [Compound 62, tert-butyl-6-chloro-7-(3-methoxyphenyl)-3,4-dihydropyrrolo[1,2-a]pyrazine-2,8(1H)-dicarboxamide] |  | 0.001 to 0.004 µM |
| CC(C)(C)CCNC(=O)N1CCn2c(Cl)c(-c3ccccc3)c(C(N)=O)c2C1 [Compound 72, 6-chloro-N^2-(3,3-dimethylbutyl)-7-phenyl-3,4-dihydropyrrolo[1,2-a]pyrazine-2,8(1H)-dicarboxamide] |  | 0.001 to 0.017 µM |
| NC(=O)c1c(-c2cccc(F)c2)c(Cl)n2c1CN(C(=O)NCCCC(F)(F)F)CC2 [Compound 81, 6-chloro-7-(3-fluorophenyl)-N^2-(4,4,4-trifluorobutyl)-3,4-dihydropyrrolo[1,2-a]pyrazine-2,8(1H)-dicarboxamide] |  | 0.002 to 0.016 µM |
| CC1(O)CCC(NC(=O)N2CCn3c(Cl)c(-c4cccc(F)c4)c(C(N)=O)c3C2)CC1 (stereo not drawn) [Compound 84, trans-6-chloro-7-(3-fluorophenyl)-N^2-(4-hydroxy-4-methyl-cyclo-hexyl)-3,4-dihydropyrrolo[1,2-a]pyrazine-2,8(1H)-dicarboxamide] |  | 0.001 µM |
| NC(=O)c1c(-c2cccc(F)c2)c(Cl)n2c1CN(C(=O)NC1CCC(O)(C(F)(F)F)CC1)CC2 (stereo not drawn) [Compound 85, trans-6-chloro-7-(3-fluorophenyl)-N^2-(4-hydroxy-4-trifluoromethyl-cyclo-hexyl)-3,4-dihydropyrrolo[1,2-a]pyrazine-2,8(1H)-dicarboxamide] |  | 0.002 µM |
| CON=C1CCC(NC(=O)N2CCn3c(Cl)c(-c4cccc(F)c4)c(C(N)=O)c3C2)CC1 (stereo not drawn) [Compound 86, trans-6-chloro-7-(3-fluorophenyl)-N^2-(4-methoxyimino-cyclohexyl)-3,4-dihydropyrrolo[1,2-a]pyrazine-2,8(1H)-dicarboxamide] |  | < 0.001 µM |
| CC(C)(C)ON=C1CCC(NC(=O)N2CCn3c(Cl)c(-c4cccc(F)c4)c(C(N)=O)c3C2)CC1 (stereo not drawn) [Compound 87, trans-6-chloro-7-(3-fluorophenyl)-N^2-(4-tert-butyloxyimino-cyclohexyl)-3,4-dihydropyrrolo[1,2-a]pyrazine-2,8(1H)-dicarboxamide] |  | < 0.001 µM |
| NC(=O)c1c(-c2ccccc2)c(Cl)n2c1CN(C(=O)NC1CC3CCC1C3)CC2 (centres unmarked) [Compound 88, N^2-(bicyclo[2.2.1]hept-2-yl)-6-chloro-7-phenyl-3,4-dihydropyrrolo[1,2-a]pyrazine-2,8(1H)-dicarboxamide] |  | 0.003 to 0.005 µM |
| C[C@@H]1CC(NC(=O)N2CCn3c(Cl)c(-c4cccc(F)c4)c(C(N)=O)c3C2)C[C@H](C)O1 (stereo partly drawn) [Compound 100, cis-6-chloro-N^2-(2,6-dimethyl-tetrahydro-2H-pyran-4-yl)-7-(3-fluorophenyl)-3,4-dihydropyrrolo[1,2-a]pyrazine-2,8(1H)-dicarboxamide] |  | > 0.001 µM |
| NC(=O)c1c(-c2ccccc2)c(Cl)n2c1CN(C(=O)NC1CCS(=O)(=O)C1)CC2 (centres unmarked) [Compound 101, 6-chloro-N^2-(1,1-dioxydotetrahydrothiophen-3-yl)-7-phenyl-3,4-dihydropyrrolo[1,2-a]pyrazine-2,8(1H)-dicarboxamide] |  | 0.009 to 0.024 µM |
| NC(=O)c1c(-c2cccc(F)c2)c(Cl)n2c1CN(C(=O)NC1CCS(=O)(=O)C1)CC2 (centres unmarked) [Compound 102, 6-chloro-N^2-(1,1-dioxydotetrahydrothiophen-3-yl)-7-(3-fluorophenyl)-3,4-dihydropyrrolo[1,2-a]pyrazine-2,8(1H)-dicarboxamide] |  | 0.004 to 0.011 µM |
| NC(=O)c1c(-c2cccc(F)c2)c(Cl)n2c1CN(C(=O)NC1CCS(=O)(=O)CC1)CC2 [Compound 103, 6-chloro-N^2-(1,1-dioxydotetrahydro-2H-thiopyran-4-yl)-7-(3-fluorophenyl)-3,4-dihydropyrrolo[1,2-a]pyrazine-2,8(1H)-dicarboxamide] |  | 0.007 to 0.014 µM |
